The subject of one series is NF-kB p65. Kind of series: NF-kB p65 staining, nuclear localization in SCs exposed to high glucose. Format: cell-based, human.
Series [1] relates to hPSC-SCs. The experiment in a line: Untargeted primary metabolomics of glucose and BP treated SCs. Format: cell-based, human.
Series [2] has as its system hPSC-SCs. Kind of series: Metabolite measurements by biochemical/colorimetric assays (sorbitol, fructose, lactate, glucose, pyruvate). Format: cell-based, human.
For series [3], the system named is hPSC-SCs.
The test system of series [4] is patients suffering from neuropathic pain. Particulars: cited from earlier work.
Series [5] in a line: Blood glucose levels in STZ-treated mice. Particulars: BP in chow.
In series [6] the test system is SOX10+ cells in 2D or 3D NC cultures. The experiment in a line: Maintenance of SOX10 expression in cultured NC precursors with signaling modulators. Format: cell-based, human. Particulars: CHIR99021 exposure together with FGF2, 3D aggregates. The source says:
Initial hPSC-based NC differentiation protocols relied on the delamination of putative NC cells from neuroepithelial lineages combined with the prospective isolation of p75+ and/or HNK1+ NC precursors (Bajpai et al., 2010; Lee et al., 2007). While those protocols yield various NC-derived lineages, the levels of SOX10 expression are generally low. In contrast, more directed NC induction protocols based on timed exposure to activators of WNT signaling show robust induction of SOX10 in the majority of cells by day 11 of differentiation (Barber et al., 2019; […] et al., 2016; Menendez et al., 2011; Mica et al., 2013; Tchieu et al., 2017). Upon further culture, those hPSC-derived NC cells can be directed into SOX10+ melanocytes (Mica et al., 2013) but also give rise to SOX10-mesenchymal and neuronal precursors ([…] et al., 2016; Lee et al., 2007; Mica et al., 2013; Tchieu et al., 2017). Since SOX10 is a key marker in the SC lineage (Finzsch et al., 2010), we first screened for conditions that maintained its expression in cultured NC precursors. We determined the percentage of SOX10+ cells in 2D or 3D NC cultures in the presence of modulators of EGF, FGF, WNT, Notch, TGFβ, BMP and endothelin 3 signaling.

Setting [7] is: HTS viability of hPSC-SCs in the presence of 30 mM glucose, Prestwick library, Table S4.

Where two headings read alike, the source gives them in different places.

`CC(NC(C)(C)C)C(=O)c1cccc(Cl)c1` (centres unmarked) [BP, Bupropion]: the “NF-kB p65 localization to the nucleus in SCs exposed to high glucose” value with NF-kB p65 is reported as “counteracted by BP treatment”. Besides, in the series on hPSC-SCs [1] (SCs), the cellular lactate level result is “reduced after BP treatment”; the “levels of TCA cycle metabolites succinate, fumarate, citrate, α-ketoglutarate and malate” value is reported as “increase in the detected levels”. In addition, in the series on hPSC-SCs [1] (high glucose), the “cellular pyruvate increased by high glucose” value is “lowered by BP treatment”; the “concentration of citrate reduced by high glucose” value is reported as “reversed by BP treatment”; the “urea concentration and transporter SLC14A2 mRNA level” value is given as “decreased in the presence of BP”. Moreover, in the series with hPSC-SCs [2], the “cellular level of fructose increased by high glucose” value was “countered this effect”. Besides, the “intracellular glucose and sucrose levels” value with hPSC-SCs [2] (SCs, high glucose) is “decrease in intracellular glucose and sucrose levels”. For the same compound, the “sorbitol accumulation in SCs” value in the series on hPSC-SCs [2] (high glucose) is on record as “reduced sorbitol accumulation in SCs in a dose-dependent manner”. Also, the “normalized (transformed) viability z-score, number of viable cells” value in the series with hPSC-SCs [3] (30 mM glucose, compounds at 1 μM, 72 hours, DAPI negative RFP positive cells) is given as “top hit compound”. The highest non-toxic dose with hPSC-SCs [3] (human) amounted to 0.7 µM. The “rescue of viability of high glucose treated SC cultures, dose response” value with hPSC-SCs [3] (various concentrations, high glucose) is recorded as “dose-dependent effect on rescuing the viability”. In addition, in series [4], the “benefit in patients with neuropathic pain” value is “some benefit”. In addition, the blood glucose levels result in series [5] is on record as “does not affect glucose levels”.

`Cc1c[nH]c(-c2cnc(NCCNc3ccc(C#N)cn3)nc2-c2ccc(Cl)cc2Cl)n1` [CHIR99021, reference compound]: the “SOX10 expression in cultured NC precursors” value in series [6] was “maintenance of SOX10 expression in 3D aggregates”.

As to FGF2, the “SOX10 expression in cultured NC precursors” value in series [6] is “maintenance of SOX10 expression in 3D aggregates”.

The compound Lycorine hydrochloride gave a z.score.t with hPSC-SCs [3] of −2.213.

As for Mephentermine hemisulfate, the z.score.t in the series with hPSC-SCs [3] is listed as −0.2359.

Regarding Merbromin, the z.score.t with hPSC-SCs [3] is given as −0.7567.

Consider Pizotifen malate, for which the z.score.t in the series with hPSC-SCs [3] (setting [7]) was −0.2329.

Regarding Pridinol methanesulfonate salt, the z.score.t in the series with hPSC-SCs [3] is listed as −0.7183.

In the series on hPSC-SCs [3], Retrorsine registered a z.score.t of −0.3526.

With S(−)Eticlopride hydrochloride, the z.score.t with hPSC-SCs [3] (setting [7]) is reported as −0.5169.

Consider Solanine alpha, for which the z.score.t in the series on hPSC-SCs [3] is recorded as −0.2486.

As to Spiramycin, the z.score.t with hPSC-SCs [3] (setting [7]) was determined as 0.7158.

Take Terbutaline hemisulfate: the z.score.t in the series with hPSC-SCs [3] (setting [7]) is on record as −1.238.

On to Thioproperazine dimesylate, for which the z.score.t in the series on hPSC-SCs [3] (setting [7]) was −1.223.

Consider Timolol maleate salt, for which, in the series with hPSC-SCs [3] (setting [7]), the z.score.t was −0.6395.

For Trimeprazine tartrate, the z.score.t in the series with hPSC-SCs [3] (setting [7]) is −0.411.

In the case of Trimipramine maleate salt, in the series on hPSC-SCs [3] (setting [7]), the z.score.t worked out at 0.2361.

In the case of Tropicamide, the z.score.t in the series with hPSC-SCs [3] (setting [7]) was −0.1241.

In the series with hPSC-SCs [3], Tyloxapol had a z.score.t of −1.008.

For Verteporfin, in the series with hPSC-SCs [3] (setting [7]), the z.score.t is on record as −1.551.

Consider Viomycin sulfate, for which the z.score.t in the series with hPSC-SCs [3] is given as −0.2329.

For the compound Vitamin K2, the z.score.t with hPSC-SCs [3] (setting [7]) is given as −0.4141.
